Several values for one entry are separate records, joined by “and”; a condition that tells them apart may be missing. Identical values can stand only once. Like-named read-outs stand apart in the source and are kept apart here.
Columns and labels:
[1] = system: maximal electroshock (MES) induced seizures; test: Maximal electroshock (MES) test; type: in vivo, mice; settings: Mus musculus, ip; for ED50: 95% confidence intervals in parentheses
Text: (§1) Male Kunming mice (23–28 g) were maintained under controlled conditions with ad libitum access to standard pellet diet and water. Test compounds were formulated immediately prior to administration in normal saline containing 0.5% Tween-80. Our experiment was authorized by the Institutional Animal Care and Use Committee of Shaanxi University of Chinese Medicine (animal ethics certificate number: SUCMDL20210309027).
The MES test carried out following the method of Swinyard. A 60 Hz current (50 mA; 0.25 s duration) was delivered via corneal electrodes using a YSD-4G electro convulsion meter (Zhenghua Instruments, Huaibei, China, SN: ZH0056232). […] Test compounds were suspended in an identical vehicle. Protection was defined as abolition of tonic hindlimb extension.

[2] = system: LDH enzyme; test: In vitro LDH assay; type: biochemical
Procedure: Employing the commercial LDH enzyme (Solarbio Life Science, Beijing, China, CAS:9001-60-9, Lot. Document No. 14240222001) includes a colorimetric assay kit designed to assess the synthesized substances’ capacity to suppress the LDH enzyme, using established techniques with slight alterations. In summary, a 96-well microplate was filled with 30 μL of LDH enzyme (300 U/mL) and 70 μL of the inhibitor mixture (0.1 mM in final concentration). Following a 10 min pre-incubation process at ambient temperature, […] of NADH (0.2 mM) was introduced. Subsequently, each well received 40 μL of phosphate buffer (20 mM, pH 6.8), reaching a total volume of 250 μL, followed by a 10 min incubation of the assay plate at 28 °C. Subsequently, […] absorbance was gauged at 340 nm utilizing a SpectraMax 190 Absorbance Microplate Reader (Molecular Devices, San Jose, CA, USA). […] In the initial screening, the level of suppression by the test substances was denoted as a percentage (%). The calculation for the LDH inhibition ratio was as follows:Inhibition (%) = [(Asample − Ablank)/Acontrol] × 100%
Asample denotes the OD340 absorbance of test compound and Ablank is the OD340 absorbance for the blank. Acontrol represents the OD340 absorbance of control.

[3] = system: mice; test: Acute neurotoxicity screening (rotarod test); type: in vivo; settings: i.p., 30 min post-administration, 95% confidence intervals in parentheses
Procedure: as §1
(§2) Neurotoxicity was assessed via a rotarod test. Mice were trained to maintain balance on a rotating rod (diameter: 4 cm; 24 rpm). Trained animals received i.p. injections of test compounds or reference drugs. At 30 min post-administration, neurologic impairment was defined as failure to remain on the rod for 3 min (≥3 falls within the testing period). Data were used to calculate TD50 values.

[4] = Acute neurotoxicity screening (rotarod test); type: in vivo, mice; settings: male, Kunming, mouse, in vivo, ip, 30 min post-administration, 95% confidence intervals in parentheses
Procedure: as §1, §2

[5] = system: scPTZ-induced seizures; test: Pentylenetetrazole (PTZ)-induced seizure test (scPTZ); type: in vivo; settings: 100 mg/kg i.p., PTZ 85 mg/kg s.c., mice
Procedure: as §1
Seizures were induced by subcutaneous (s.c.) administration of PTZ (85 mg/kg in 1% v/v Tween-80/0.9% NaCl), 30 min after compound treatment. This dose produces clonic seizures (≥5 s duration) in 97% of naive mice. Latency to seizure onset was recorded during continuous observation.

[6] = system: PTZ-induced epileptic spikes; test: Electroencephalogram (EEG) after PTZ; type: in vivo, mice; settings: 100 mg/kg i.p.
Text: Mice sedated with urethane were subjected to aseptic craniotomy, involving the stereotaxic insertion of cortical screw electrodes aligned with bregma coordinates (anterior–posterior: +3.0 mm; mediolateral: ±1.5 mm) and a reference electrode (anterior–posterior: −2.0 mm; mediolateral: −1.5 mm). The electrodes were secured using dental acrylic, followed by a recovery period of 5–7 days for the animals before the instrumentation. The continuous EEG data were captured through using 8-channel bioamplifiers linked to a PowerLab 8/30 system (AD Instruments, Shanghai, China). After a 30 min acclimatization period in the recording chambers, initial activity levels were documented for 15–20 min. […] After 60 min, pentylenetetrazol (PTZ, 85 mg/kg i.p.) was administered, initiating seizure. Sampling of EEG signals occurred at a frequency of 200 Hz, utilizing a bandpass filter ranging from 0.1 to 60 Hz. Electrographic convulsions were characterized by spikes surpassing double the baseline amplitude, quantified by (1) the delay before the initial spike (seconds after PTZ); (2) the frequency of spikes (counts per 60 s period from the first spike) through established peak-detection methods.

[7] = system: LDH; test: Immunofluorescence staining for LDH in hippocampus; type: in vivo; settings: hippocampus CA1, PTZ model mice
Procedure: Brain samples were extracted, preserved in 4% paraformaldehyde for a day, and subsequently immersed in a 30% sucrose solution to dehydrate. Post OCT embedding, slices of brain tissue measuring 16 μm in thickness were sliced using a cryostat. Following the permeabilization using 0.5% TritonX-100 and subsequent blocking with 10% goat serum at ambient temperature to remove nonspecific staining, the tissue samples were subjected to overnight incubation at 4 °C with the primary antibody, LDHA (Proteintech (Rosemont, IL, USA), Cat No. 19987-1-AP, Lot: 00106920, rabbit anti-rat 1:200). On the next day, the slides underwent incubation using a secondary antibody. The slides underwent counterstaining using DAPI. […] slices were examined and visualized utilizing the VS200-BU Slide Scanner (Olympus Corporation, Tokyo, Japan).

[8] = system: neurons in CA1 and CA3 regions of the hippocampus; test: Silver staining of hippocampal tissue; type: in vivo; settings: PTZ model mice, compared with PTZ group
Procedure: Following the creation of the PTZ model, a modified version of the silver impregnation staining technique was applied for silver staining, enabling the observation of changes in neuronal fibers and synapses throughout diseases. Brain tissue slices from each mouse, encased in paraffin, underwent deparaffinization using xylene and absolute ethanol, followed by a treatment in acidic formaldehyde, and then incubation in a glycine–silver mixture. Following the application of a reducing solution for staining, the samples were analyzed using an optical microscope. Against a yellow backdrop, nerve cells’ axons, dendrites, collagen fibers, and neurofibrillary tangles were colored in dark brown or black.

[9] = system: LDH; settings: original ligand of the LDH co-crystal complex; cited from earlier work
[10] = system: scPTZ-induced seizures; parameters: method as in PMID 31539780; settings: reference drug; cited from earlier work
[11] = system: mice; parameters: method as in PMID 31539780; settings: reference drug; cited from earlier work
[12] = 0.5 h, read-out: MES model, protected mice/total mice, 0.5 h
[13] = 1 h, read-out: MES model, protected mice/total mice, 1 h
[14] = 2 h, read-out: MES model, protected mice/total mice, 2 h
[15] = 3 h, read-out: MES model, protected mice/total mice, 3 h

| SMILES | ED50 ([1]; mice) [mg/kg] | LDH Inhibition Ratio (0.1 mM) [2] [%] | TD50 at 30 min [4] [mg/kg] | SCPTZ Latent Time (100 mg/kg, s) [5] | SCPTZ Protective Ratio (100 mg/kg) [5] | responders at 100 mg/kg [1, 12] [%] | responders at 100 mg/kg [1, 13] [%] | responders at 100 mg/kg [1, 14] [%] | responders at 100 mg/kg [1, 15] [%] | LDH immunolabelling intensity [7] | silver staining, neurons in hippocampal CA1 and CA3 [8] | other results |
| --- | --- | --- | --- | --- | --- | --- | --- | --- | --- | --- | --- | --- |
| C/C=C/c1ccc(OC(=O)CCCN2CCN(C(=O)/C=C/c3cc(OC)c(OC)c(OC)c3)CC2)c(OC)c1 [A3, methoxy-4-((E)-prop-1-en-1-yl)phenyl 4-(4-((E)-3-(3,4,5-trimethoxyphenyl)acryloyl)piperazin-1-yl)butanoate] | 73.3 | 37.6 ± 8.1 | 443 | 222.0 ± 14.7 s | 1/4 | – | – | – | – | – | – | responders at 100 mg/kg ([1]; 100 mg/kg i.p., mice, 0.5 h, read-out: MES model, protected mice/total mice, 0.5 h (converted)): 100%; responders at 100 mg/kg ([1]; 100 mg/kg i.p., mice, 1 h, read-out: MES model, protected mice/total mice, 1 h (converted)): 75%; responders at 100 mg/kg ([1]; 100 mg/kg i.p., mice, 2 h, read-out: MES model, protected mice/total mice, 2 h (converted)): 50%; responders at 100 mg/kg ([1]; 100 mg/kg i.p., mice, 3 h, read-out: MES model, protected mice/total mice, 3 h (converted)): 25%; TD50 [3]: weak neurotoxicity |
| COc1cc(/C=C/C(=O)N2CCN(C(=O)CCC(=O)N3CCN(C(c4ccc(F)cc4)c4ccc(F)cc4)CC3)CC2)cc(OC)c1OC [B9, (E)-1-(4-(bis(4-fluorophenyl)methyl)piperazin-1-yl)-4-(4-(3-(3,4,5-trimethoxyphenyl)acryloyl)piperazin-1-yl)butane-1,4-dione] | 23.6 | – | 235 | 274.3 s and 274.3 ± 17.2 s | 3/4 | 100 | 75 | 25 | 0 | lower than the values found in the PTZ group | alleviated symptoms | latency to the first PTZ-induced epileptic spike (EEG) ([6]; PTZ 85 mg/kg i.p. after 60 min): extended; spike frequency within 60 s post-initial spike (EEG) ([6]; compared to PTZ controls): significantly reduced |
| O=C1N[C@](c2ccc(N3CCOCC3)cc2)(c2ccsc2)CC(O)=C1Sc1ccccc1Cl [GEN-140] | – | – | – | – | – | – | – | – | – | – | – | IC50 [9]: 3 nM |
| CC(C)(C)C(O)/C=C/c1ccc2c(c1)OCO2 (stereo not drawn) [STP, Stiripentol, reference compound] | – | 46.1 ± 6.2 | – | – | – | 100 | 50 | 25 | 0 | lower than the values found in the PTZ group | alleviated symptoms | SCPTZ Latent Time (100 mg/kg, s) [10]: 269.5 ± 19.8 s; SCPTZ Protective Ratio (100 mg/kg) [10]: 2/4; TD50 [11]: 161.7 (146.2–256.2) mg/kg |
